# Laboratory results taken from patent US20250136638A1, “9(11)-UNSATURATED NEUROACTIVE STEROIDS AND THEIR METHODS OF USE” (SAGE THERAPEUTICS, INC., priority 2018, published 2025).
# Biological target: rat brain cortical membranes ([35S]-TBPS binding, GABA receptor complex)
# Experiment: Steroid inhibition of [35S]-TBPS binding
# Conditions: 3 nM [35S]-TBPS, in the presence of 5 mM GABA
# Protocol: [^35S]-t-Butylbicyclophosphorothionate (TBPS) binding assays using rat brain cortical membranes in the presence of 5 mM GABA has been described (Gee et al, J. Pharmacol. Exp. Ther. 1987, 241, 346-353; Hawkinson et al, Mol. Pharmacol. 1994, 46, 977-985; Lewin, A. H et al., Mol. Pharmacol. 1989, 35, 189-194).
# Briefly, cortices are rapidly removed following decapitation of carbon dioxide-anesthetized Sprague-Dawley rats (200-250 g). The cortices are homogenized in 10 volumes of ice-cold 0.32 M sucrose using a glass/teflon homogenizer and centrifuged at 1500×g for 10 min at 4° C. The resultant supernatants are centrifuged at 10,000×g for 20 min at 4° C. to obtain the P2 pellets. The P2 pellets are resuspended in 200 mM NaCl/50 mM Na—K phosphate pH 7.4 buffer and centrifuged at 10,000×g for 10 min at 4° C. This washing procedure is repeated twice and the pellets are resuspended in 10 volumes of buffer. Aliquots ([…]) of the membrane suspensions are incubated with 3 nM [^35S]-TBPS and […] aliquots of test drug dissolved in dimethyl sulfoxide (DMSO) (final 0.5%) in the presence of 5 mM GABA. The incubation is brought to a final volume of 1.0 mL with buffer. Nonspecific binding is determined in the presence of […] and ranged from 15 to 25%. Following a 90 min incubation at room temp, the assays are terminated by filtration through glass fiber filters (Schleicher and Schuell No. 32) using a cell harvester (Brandel) and rinsed three times with ice-cold buffer. Filter bound radioactivity is measured by liquid scintillation spectrometry. Non-linear curve fitting of the overall data for each drug averaged for each concentration is done using Prism (GraphPad). […] The concentration of test compound producing 50% inhibition (IC50) of specific binding and the maximal extent of inhibition (Imax) are determined for the individual experiments with the same model used for the overall data and then the means±SEM.s of the individual experiments are calculated.
# Various compounds are or can be screened to determine their potential as modulators of [^35S]-TBPS binding in vitro. These assays are or can be performed in accordance with the above.
row,SMILES,IC50 [nM]
1,"CC(=O)[C@H]1CC[C@H]2[C@@H]3CC[C@H]4C[C@](C)(O)CC[C@]4(C)C3=CC[C@]12C [Example 1, 1-((3R,5S,8S,10S,13S,14S,17S)-3-hydroxy-3,10,13-trimethyl-2,3,4,5,6,7,8,10,12,13,14,15,16,17-tetradecahydro-1H-cyclopenta[a]phenanthren-17-yl)ethan-1-one]",100 to 1000
2,"C[C@@]1(O)CC[C@]2(C)C3=CC[C@]4(C)[C@@H](C(=O)Cn5cc(C#N)cn5)CC[C@H]4[C@@H]3CC[C@H]2C1 [Example 2, 1-(2-((3R,5S,8S,10S,13S,14S,17S)-3-hydroxy-3,10,13-trimethyl-2,3,4,5,6,7,8,10,12,13,14,15,16,17-tetradecahydro-1H-cyclopenta[a]phenanthren-17-yl)-2-oxoethyl)-1H-pyrazole-4-carbonitrile]",10 to 100
3,"C[C@@]1(O)CC[C@]2(C)C3=CC[C@]4(C)[C@H](C(=O)Cn5cc(C#N)cn5)CC[C@H]4[C@@H]3CC[C@H]2C1 [Example 3, 1-(2-((3R,5S,8S,10S,13S,14S,17R)-3-hydroxy-3,10,13-trimethyl-2,3,4,5,6,7,8,10,12,13,14,15,16,17-tetradecahydro-1H-cyclopenta[a]phenanthren-17-yl)-2-oxoethyl)-1H-pyrazole-4-carbonitrile]",1000 to 10000
4,"Cc1nnn(CC(=O)[C@H]2CC[C@H]3[C@@H]4CC[C@H]5C[C@](C)(O)CC[C@]5(C)C4=CC[C@]23C)n1 [Example 4, 1-((3R,5S,8S,10S,13S,14S,17S)-3-hydroxy-3,10,13-trimethyl-2,3,4,5,6,7,8,10,12,13,14,15,16,17-tetradecahydro-1H-cyclopenta[a]phenanthren-17-yl)-2-(5-methyl-2H-tetrazol-2-yl)ethan-1-one]",100 to 1000
5,"Cc1nnnn1CC(=O)[C@H]1CC[C@H]2[C@@H]3CC[C@H]4C[C@](C)(O)CC[C@]4(C)C3=CC[C@]12C [Example 5, 1-((3R,5S,8S,10S,13S,14S,17S)-3-hydroxy-3,10,13-trimethyl-2,3,4,5,6,7,8,10,12,13,14,15,16,17-tetradecahydro-1H-cyclopenta[a]phenanthren-17-yl)-2-(5-methyl-1H-tetrazol-1-yl)ethan-1-one]",100 to 1000
6,"C[C@@]1(O)CC[C@]2(C)C3=CC[C@]4(C)[C@@H](C(=O)Cn5ccnn5)CC[C@H]4[C@@H]3CC[C@H]2C1 [Example 6, 1-((3R,5S,8S,10S,13S,14S,17S)-3-hydroxy-3,10,13-trimethyl-2,3,4,5,6,7,8,10,12,13,14,15,16,17-tetradecahydro-1H-cyclopenta[a]phenanthren-17-yl)-2-(1H-1,2,3-triazol-1-yl)ethan-1-one]",100 to 1000
7,"C[C@@]1(O)CC[C@]2(C)C3=CC[C@]4(C)[C@@H](C(=O)Cn5nccn5)CC[C@H]4[C@@H]3CC[C@H]2C1 [Example 7, 1-((3R,5S,8S,10S,13S,14S,17S)-3-hydroxy-3,10,13-trimethyl-2,3,4,5,6,7,8,10,12,13,14,15,16,17-tetradecahydro-1H-cyclopenta[a]phenanthren-17-yl)-2-(2H-1,2,3-triazol-2-yl)ethan-1-one]",100 to 1000
8,"CC(=O)[C@H]1CC[C@H]2[C@@H]3CC[C@@H]4C[C@](C)(O)CC[C@]4(C)C3=CC[C@]12C [Example 8, 1-((3R,5R,8S,10S,13S,14S,17S)-3-hydroxy-3,10,13-trimethyl-2,3,4,5,6,7,8,10,12,13,14,15,16,17-tetradecahydro-1H-cyclopenta[a]phenanthren-17-yl)ethan-1-one]",10 to 100
9,"C[C@@]1(O)CC[C@]2(C)C3=CC[C@]4(C)[C@@H](C(=O)Cn5cc(C#N)cn5)CC[C@H]4[C@@H]3CC[C@@H]2C1 [Example 9, 1-(2-((3R,5R,8S,10S,13S,14S,17S)-3-hydroxy-3,10,13-trimethyl-2,3,4,5,6,7,8,10,12,13,14,15,16,17-tetradecahydro-1H-cyclopenta[a]phenanthren-17-yl)-2-oxoethyl)-1H-pyrazole-4-carbonitrile]",10 to 100
10,"Cc1nnn(CC(=O)[C@H]2CC[C@H]3[C@@H]4CC[C@@H]5C[C@](C)(O)CC[C@]5(C)C4=CC[C@]23C)n1 [Example 10, 1-((3R,5R,8S,10S,13S,14S,17S)-3-hydroxy-3,10,13-trimethyl-2,3,4,5,6,7,8,10,12,13,14,15,16,17-tetradecahydro-1H-cyclopenta[a]phenanthren-17-yl)-2-(5-methyl-2H-tetrazol-2-yl)ethan-1-one]",10 to 100
11,"Cc1nnnn1CC(=O)[C@H]1CC[C@H]2[C@@H]3CC[C@@H]4C[C@](C)(O)CC[C@]4(C)C3=CC[C@]12C [Example 11, 1-((3R,5R,8S,10S,13S,14S,17S)-3-hydroxy-3,10,13-trimethyl-2,3,4,5,6,7,8,10,12,13,14,15,16,17-tetradecahydro-1H-cyclopenta[a]phenanthren-17-yl)-2-(5-methyl-1H-tetrazol-1-yl)ethan-1-one]",100 to 1000
12,"C[C@@]1(O)CC[C@]2(C)C3=CC[C@]4(C)[C@@H](C(=O)Cn5ccnn5)CC[C@H]4[C@@H]3CC[C@@H]2C1 [Example 12, 1-((3R,5R,8S,10S,13S,14S,17S)-3-hydroxy-3,10,13-trimethyl-2,3,4,5,6,7,8,10,12,13,14,15,16,17-tetradecahydro-1H-cyclopenta[a]phenanthren-17-yl)-2-(1H-1,2,3-triazol-1-yl)ethan-1-one]",100 to 1000
13,"C[C@@]1(O)CC[C@]2(C)C3=CC[C@]4(C)[C@@H](C(=O)Cn5nccn5)CC[C@H]4[C@@H]3CC[C@@H]2C1 [Example 13, 1-((3R,5R,8S,10S,13S,14S,17S)-3-hydroxy-3,10,13-trimethyl-2,3,4,5,6,7,8,10,12,13,14,15,16,17-tetradecahydro-1H-cyclopenta[a]phenanthren-17-yl)-2-(2H-1,2,3-triazol-2-yl)ethan-1-one]",10 to 100
14,"CCOC[C@@]1(O)CC[C@]2(C)C3=CC[C@]4(C)[C@@H](C(C)=O)CC[C@H]4[C@@H]3CC[C@H]2C1 [Example 14, 1-((3R,5S,8S,10S,13S,14S,17S)-3-(ethoxymethyl)-3-hydroxy-10,13-dimethyl-2,3,4,5,6,7,8,10,12,13,14,15,16,17-tetradecahydro-1H-cyclopenta[a]phenanthren-17-yl)ethan-1-one]",1000 to 10000
15,"CCOC[C@@]1(O)CC[C@]2(C)C3=CC[C@]4(C)[C@@H](C(C)=O)CC[C@H]4[C@@H]3CC[C@@H]2C1 [Example 15, 1-((3R,5R,8S,10S,13S,14S,17S)-3-(ethoxymethyl)-3-hydroxy-10,13-dimethyl-2,3,4,5,6,7,8,10,12,13,14,15,16,17-tetradecahydro-1H-cyclopenta[a]phenanthren-17-yl)ethan-1-one]",100 to 1000
16,"COC[C@@]1(O)CC[C@]2(C)C3=CC[C@]4(C)[C@@H](C(C)=O)CC[C@H]4[C@@H]3CC[C@@H]2C1 [Example 16, 1-((3R,5R,8S,10S,13S,14S,17S)-3-hydroxy-3-(methoxymethyl)-10,13-dimethyl-2,3,4,5,6,7,8,10,12,13,14,15,16,17-tetradecahydro-1H-cyclopenta[a]phenanthren-17-yl)ethan-1-one]",100 to 1000
17,"COC[C@@]1(O)CC[C@]2(C)C3=CC[C@]4(C)[C@@H](C(=O)Cn5cc(C#N)cn5)CC[C@H]4[C@@H]3CC[C@@H]2C1 [Example 17, 1-(2-((3R,5R,8S,10S,13S,14S,17S)-3-hydroxy-3-(methoxymethyl)-10,13-dimethyl-2,3,4,5,6,7,8,10,12,13,14,15,16,17-tetradecahydro-1H-cyclopenta[a]phenanthren-17-yl)-2-oxoethyl)-1H-pyrazole-4-carbonitrile]",10 to 100
